In US20210380548A1, “Fused [1,2,4]Thiadiazine Derivatives Which Act as KAT Inhibitors of the MYST Family” (CTxT Pty Limited, priority 2017, published 2021) one finds IC50 data, which are given here for 17 compounds.

For assay [1], the target named is T1, TIP60-KAT5 (Homo sapiens, UniProt Q92993).
T1 construct: encoding amino acid residues 2 to 461 (Uniprot Q92993-2) of human KAT5 isoform; made in house; host or cells: E. coli BL21 DE3
The experiment in a line: Acetyltransferase biochemical assay (AlphaScreen), KAT5. The conditions noted are these: Table 1 (TIP60-KAT5); 0.4 μM Acetyl coenzyme A, histone H4, 10 nM enzyme. (In general: Alpha assays give light when donor and acceptor beads are brought close together.)

Assay [2] has as its target T2, MOZ-KAT6A (Homo sapiens, UniProt Q92794, A567V).
T2 construct: encoding amino acid residues 507 to 778 (Uniprot Q92794-1) of human KAT6A; made in house; host or cells: E. coli BL21 DE3
The experiment in a line: Acetyltransferase biochemical assay (AlphaScreen), KAT6A. The settings on record: Table 2 (MOZ-KAT6A); 10 μM Acetyl coenzyme A, histone H3.1, 5 nM enzyme.

Assay [3] addresses T3, HBO-KAT7 (Homo sapiens, UniProt O95251).
T3 construct: encoding amino acid residues 325 to 611 (Uniprot 095251-1) of human KAT7; made in house; host or cells: E. coli BL21 DE3 RIL
In words: Acetyltransferase biochemical assay (AlphaScreen), KAT7. The conditions noted are these: Table 3 (HBO-KAT7); 0.4 μM Acetyl coenzyme A, histone H3.1, 40 nM enzyme.

In assay [4] the target is T4, MOF-KAT8 (Homo sapiens, UniProt Q9H7Z6).
T4 sequence (Q9H7Z6 177-447): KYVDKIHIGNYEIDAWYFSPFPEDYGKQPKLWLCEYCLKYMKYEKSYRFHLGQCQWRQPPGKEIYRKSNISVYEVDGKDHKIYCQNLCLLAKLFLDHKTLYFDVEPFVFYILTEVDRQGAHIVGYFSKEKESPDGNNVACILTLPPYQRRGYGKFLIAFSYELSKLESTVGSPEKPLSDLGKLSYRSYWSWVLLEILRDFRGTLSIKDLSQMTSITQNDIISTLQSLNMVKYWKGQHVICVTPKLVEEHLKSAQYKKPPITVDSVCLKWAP
In words: Acetyltransferase biochemical assay (AlphaScreen), KAT8. The settings on record: Table 4 (MOF-KAT8); 0.4 μM Acetyl coenzyme A, histone H4, 20 nM enzyme.

The target in assay [5] is T2, MOZ-KAT6A. In words: Revised Acetyltransferase Biochemical Assay, KAT6A. The conditions noted are these: Table 8 (MOZ-KAT6A), 1 μM Acetyl coenzyme A.
Assay [6] deals with T3, HBO-KAT7. In words: Revised Acetyltransferase Biochemical Assay, KAT7. The conditions noted are these: Table 9 (HBO-KAT7), 1 μM Acetyl coenzyme A.
Assay [7] concerns the target T1, TIP60-KAT5. The experiment in a line: Revised Acetyltransferase Biochemical Assay, KAT5. The settings on record: 10 nM KAT5, 1 μM AcCoA, 100 nM histone H4, 90 min.
The target of assay [8] is T4, MOF-KAT8. In words: Revised Acetyltransferase Biochemical Assay, KAT8.
In assay [9] the test system is histone H2A.Z Lysine 7 acetylation (TIP60 mediated) in U2OS cells. In words: H2A.Z Lysine 7 Acetylation Biomarker Assay (384-well, U2OS). The settings on record: Homo sapiens, serum free medium, 24 hours incubation. Type of assay: cell-based. The method, then:
Compounds may be tested for their ability to inhibit the histone H2A.Z Lysine 7 acetylation marker (which is TIP60 mediated) in the following assay:
The cell line U2OS was seeded at a density of 3,000 cells per well in 384-well optical quality tissue culture plates in RPMI medium supplemented with 10% foetal bovine serum and 10 mM Hepes. The cells were allowed to adhere for 24 hours under standard culture conditions (37 degree Celsius, 5% CO2). At the end of this period the cells were washed with serum free medium. […] After incubation for 24 hours, the cells were fixed with 4% formaldehyde in PBS for 15 minutes at room temperature, washed with phosphate buffer saline and blocked with blocking buffer containing 0.2% TritonX100 and 2% BSA. Anti-H2A.ZK7ac specific antibody (Abcam) in blocking buffer was added and incubated overnight at 4 degree Celsius. After washing, a secondary antibody labelled with AlexaFluor 488 dye (ThermoFisher) and Hoechst 33342 (1 μg/mL, Life Technologies) were added for 2 hours incubation at room temperature. Plates were washed and read on a PerkinElmer Opera HCS high content imaging platform. Using a Columbus image analysis pipeline, individual nuclei were located by Hoechst 33342 stain and the acetylation level was calculated from the AlexaFluor 488-related intensity in the same area. The resulting mean intensity per cell was converted to percent inhibition relative to controls on the same plate and the data fitted against a four-parameter logistic model to determine the 50% inhibitory concentration (IC50).

pIC50: −log10 of the molar value.

T1 sequence (Q92993 2-461 isoform Q92993-2): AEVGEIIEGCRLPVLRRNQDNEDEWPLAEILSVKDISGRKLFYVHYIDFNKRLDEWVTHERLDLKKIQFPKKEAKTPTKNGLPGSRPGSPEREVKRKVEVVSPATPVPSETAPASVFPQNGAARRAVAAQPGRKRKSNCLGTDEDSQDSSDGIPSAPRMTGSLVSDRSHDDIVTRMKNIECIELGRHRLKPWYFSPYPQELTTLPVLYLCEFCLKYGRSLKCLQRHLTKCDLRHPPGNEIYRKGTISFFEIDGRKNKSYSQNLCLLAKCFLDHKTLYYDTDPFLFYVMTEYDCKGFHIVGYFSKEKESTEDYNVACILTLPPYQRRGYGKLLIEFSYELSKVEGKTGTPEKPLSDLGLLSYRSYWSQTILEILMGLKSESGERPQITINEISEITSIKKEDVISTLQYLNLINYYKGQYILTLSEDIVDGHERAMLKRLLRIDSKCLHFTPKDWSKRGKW
T3 sequence (O95251 with tags, fused parts or gaps): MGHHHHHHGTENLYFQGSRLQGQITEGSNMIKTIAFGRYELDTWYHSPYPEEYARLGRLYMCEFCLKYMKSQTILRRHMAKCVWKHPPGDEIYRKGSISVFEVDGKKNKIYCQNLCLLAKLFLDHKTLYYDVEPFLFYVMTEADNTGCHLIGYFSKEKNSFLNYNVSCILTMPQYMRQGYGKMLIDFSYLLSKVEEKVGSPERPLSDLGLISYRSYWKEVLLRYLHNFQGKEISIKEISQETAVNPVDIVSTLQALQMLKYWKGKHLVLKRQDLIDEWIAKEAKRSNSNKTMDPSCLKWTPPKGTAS
T2 sequence (Q92794 507-778 A567V limits assumed): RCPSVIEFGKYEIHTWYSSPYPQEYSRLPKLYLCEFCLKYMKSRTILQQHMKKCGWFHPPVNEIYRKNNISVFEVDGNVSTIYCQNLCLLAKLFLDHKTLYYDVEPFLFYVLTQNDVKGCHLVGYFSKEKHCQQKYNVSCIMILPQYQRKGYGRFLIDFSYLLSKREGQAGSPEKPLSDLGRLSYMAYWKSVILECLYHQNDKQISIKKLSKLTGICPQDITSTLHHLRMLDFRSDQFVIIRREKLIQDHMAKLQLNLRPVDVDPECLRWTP

As to `O=C(NCCc1ccccc1-c1ncco1)C1=Nc2ccccc2S(=O)(=O)N1` [Example 7, N-(2-(Oxazol-2-yl)phenethyl)-2H-benzo[e][1,2,4]thiadiazine-3-carboxamide1,1-dioxide], the pIC50 – broadly, the negative decadic logarithm of the IC50, by convention in mol/L – is 4.93 against TIP60-KAT5 [1]; 5.55 against MOZ-KAT6A [2]; 4.92 against HBO-KAT7 [3]; under 3.90 against MOF-KAT8 [4]; 6.50 against MOZ-KAT6A [5]; 5.93 against HBO-KAT7 [6]. Besides, the values for the pIC50 at TIP60-KAT5 [7] and at MOF-KAT8 [8] were 5.23 and 4.09, respectively.
For `CN(C)C(=O)c1ccc2c(c1)S(=O)(=O)NC(C(=O)NCC(c1ccccc1)c1ncco1)=N2` (stereo not shown) [Example 33, N^7,N^7-Dimethyl-N^3-(2-(oxazol-2-yl)-2-phenylethyl)-2H-benzo[e][1,2,4]thiadiazine-3,7-dicarboxamide 1,1-dioxide], the pIC50 was 5.16 against TIP60-KAT5 [1]; 6.90 at MOZ-KAT6A [2]; 5.17 against HBO-KAT7 [3]; 4.05 against MOF-KAT8 [4]; 7.33 against MOZ-KAT6A [5]; 6.26 at HBO-KAT7 [6]. Also, the pIC50 against TIP60-KAT5 [7] is 5.42; against MOF-KAT8 [8], under 3.90.
Turning to `COc1ccccc1CCNC(=O)C1=Nc2ccc(I)cc2S(=O)(=O)N1` [Example 86], the pIC50 against TIP60-KAT5 [1] was 5.93; against MOZ-KAT6A [2] it was 5.57; on HBO-KAT7 [3], 5.88; on MOF-KAT8 [4], 4.40; at MOZ-KAT6A [5], 7.02; against HBO-KAT7 [6] it was 6.10. Further, the pIC50 is 6.28 at TIP60-KAT5 [7] and 4.37 against MOF-KAT8 [8].
For the compound `O=C(NCC(c1ccc(F)cc1)c1ncco1)C1=Nc2ccc(Cl)cc2S(=O)(=O)N1` (stereo not shown) [Example 165], the pIC50 on MOF-KAT8 [4] is 4.37; at MOZ-KAT6A [5] it was 7.51; at HBO-KAT7 [6], 5.75; against TIP60-KAT5 [7], 5.22; at MOF-KAT8 [8], under 3.90.
Regarding `Cc1ccc(C(CNC(=O)C2=Nc3ccc(Cl)cc3S(=O)(=O)N2)c2ncco2)cc1` (stereo not shown) [Example 170], the pIC50 was 5.43 against MOF-KAT8 [4]; 6.84 against MOZ-KAT6A [5]; 5.79 against HBO-KAT7 [6]; 4.88 on TIP60-KAT5 [7]; under 3.90 at MOF-KAT8 [8].
On to `O=C(NCC(c1ccccc1)c1ccccn1)C1=Nc2ccc(Br)cc2S(=O)(=O)N1` (stereo not shown) [Example 173], for which the pIC50 against HBO-KAT7 [3] is 7.29; against MOF-KAT8 [4] it was 4.41; against MOZ-KAT6A [5], 7.96; against HBO-KAT7 [6], 6.79; against TIP60-KAT5 [7] it was 6.19; against MOF-KAT8 [8], 4.52.
With `COc1ccccc1C(CNC(=O)C1=Nc2ccc(Cl)cc2S(=O)(=O)N1)c1ncco1` (stereo not shown) [Example 178], the pIC50 against HBO-KAT7 [3] is 6.24; against MOF-KAT8 [4] it was 3.97; against MOZ-KAT6A [5], 7.68; against HBO-KAT7 [6] it was 6.95; against TIP60-KAT5 [7] it was 6.07; in assay [9] it was 4.69. The compound further gave a pIC50 on MOF-KAT8 [8] of 4.21.
With `CNC(=O)CCCOC(=O)C(CNC(=O)C1=Nc2ccc(I)cc2S(=O)(=O)N1)c1ccccc1` (stereo not shown) [Example 180], the pIC50 is 4.11 on MOF-KAT8 [4]; 6.64 against MOZ-KAT6A [5]; 6.25 at HBO-KAT7 [6]; 6.60 against TIP60-KAT5 [7]; 4.43 in assay [9].
Consider `CNC(=O)CCOC(=O)C(CNC(=O)C1=Nc2ccc(I)cc2S(=O)(=O)N1)c1ccccc1` (stereo not shown) [Example 183], for which the pIC50 at MOF-KAT8 [4] is 4.44; on MOZ-KAT6A [5], 7.36; against HBO-KAT7 [6], 6.14; on TIP60-KAT5 [7], 7.17; in [9] it was 4.48; on MOF-KAT8 [8], 4.52.
Consider `COc1ccccc1C(CNC(=O)C1=Nc2ccc(I)cc2S(=O)(=O)N1)c1ncco1` (stereo not shown) [Example 184, 7-iodo-N-(2-(2-methoxyphenyl)-2-(oxazol-2-yl)ethyl)-2H-benzo[e][1,2,4]thiadiazine-3-carboxamide 1,1-dioxide], for which the pIC50 against MOF-KAT8 [4] was 5.04; against MOZ-KAT6A [5], 8.10; on HBO-KAT7 [6] it was 6.94; at TIP60-KAT5 [7], 7.00; in assay [9], 5.08; against MOF-KAT8 [8], 4.99.
On to `CS(=O)(=O)c1ccc2c(c1)S(=O)(=O)NC(C(=O)NCC(c1ccccc1)c1ncco1)=N2` (stereo not shown) [Example 191], for which the pIC50 against MOZ-KAT6A [5] is 7.37; against HBO-KAT7 [6], 6.61; against TIP60-KAT5 [7], 6.04; in assay [9], under 4.40.
Consider `N#Cc1ccccc1C(CNC(=O)C1=Nc2ccccc2S(=O)(=O)N1)c1ncco1` (stereo not shown) [Example 218, N-(2-(2-Cyanophenyl)-2-(oxazol-2-yl)ethyl)-2H-benzo[e][1,2,4]thiadiazine-3-carboxamide 1,1-dioxide], for which the pIC50 was under 3.90 on MOF-KAT8 [4]; 6.82 on MOZ-KAT6A [5]; 5.03 on HBO-KAT7 [6]; 4.78 at TIP60-KAT5 [7]; under 3.90 on MOF-KAT8 [8].
As to `COC(=O)c1ccccc1C(CNC(=O)C1=Nc2ccccc2S(=O)(=O)N1)c1ncco1` (stereo not shown) [Example 219, Methyl 2-(2-(1,1-dioxido-2H-benzo[e][1,2,4]thiadiazine-3-carboxamido)-1-(oxazol-2-yl)ethyl)benzoate], the pIC50 is under 3.90 against MOF-KAT8 [4]; 5.45 against MOZ-KAT6A [5]; 3.98 against HBO-KAT7 [6]; under 3.90 against TIP60-KAT5 [7]; under 3.90 against MOF-KAT8 [8].
As for `Cc1cccc(C(CNC(=O)C2=Nc3ccc(Cl)cc3S(=O)(=O)N2)c2ncco2)c1` (stereo not shown) [Example 234, 7-chloro-N-(2-(oxazol-2-yl)-2-(m-tolyl)ethyl)-2H-benzo[e][1,2,4]thiadiazine-3-carboxamide 1,1-dioxide], the pIC50 on MOF-KAT8 [4] was 4.24; against MOZ-KAT6A [5], 7.14; on HBO-KAT7 [6] it was 7.05; on TIP60-KAT5 [7], 5.86; in assay [9], 5.21; against MOF-KAT8 [8], 4.63.
On to `O=C(NCC(c1ncco1)c1ccccc1F)C1=Nc2ccc(I)cc2S(=O)(=O)N1` (stereo not shown) [Example 235, N-(2-(2-fluorophenyl)-2-(oxazol-2-yl)ethyl)-7-iodo-2H-benzo[e][1,2,4]thiadiazine-3-carboxamide 1,1-dioxide], for which the pIC50 was 5.18 against MOF-KAT8 [4]; 8.05 against MOZ-KAT6A [5]; 6.94 against HBO-KAT7 [6]; 7.47 at TIP60-KAT5 [7]; 5.97 in assay [9]; 5.49 on MOF-KAT8 [8].
As for `O=C(NCC(c1ncco1)c1ccccc1F)C1=Nc2ccc(Cl)cc2S(=O)(=O)N1` (stereo not shown) [Example 236, 7-chloro-N-(2-(2-fluorophenyl)-2-(oxazol-2-yl)ethyl)-2H-benzo[e][1,2,4]thiadiazine-3-carboxamide 1,1-dioxide], the pIC50 at MOF-KAT8 [4] is 4.69; against MOZ-KAT6A [5] it was 8.00; at HBO-KAT7 [6] it was 7.14; on TIP60-KAT5 [7] it was 6.95; in assay [9] it was 5.11; against MOF-KAT8 [8], 4.71.
Turning to `O=C(NCCc1ccccc1-n1ccnn1)C1=Nc2ccc(I)cc2S(=O)(=O)N1` [Example 241, N-(2-(1H-1,2,3-triazol-1-yl)phenethyl)-7-iodo-2H-benzo[e][1,2,4]thiadiazine-3-carboxamide 1,1-dioxide], the pIC50 was 7.09 against MOZ-KAT6A [5], 6.02 at HBO-KAT7 [6], 6.00 against TIP60-KAT5 [7] and under 4.40 in assay [9].
